One assay has as its system K652. Kind of assay: Inhibition of P-gp-mediated rhodamine 123 efflux in doxorubicin-resistant human […] cells at 100 uM treated for 1 hr measured after washout by FACS flow cytometry relative to verapamil. Format: cell-based. On the technique in general: In flow cytometry, cells or beads pass a laser one at a time.
Assay [1] in a line: Competitive inhibition of P-gp assessed as P-gp-associated ATPase activity at 10 uM by Pgp-GloTM Assay.
Assay [2] is described as follows: Noncompetitive inhibition of P-gp assessed as reduction in P-gp-associated ATPase activity by Pgp-GloTM Assay.

Structures are written as SMILES. Active and inactive are the calls of the source. The rule behind the calls is not given here.

In the case of `CN(C)[C@@H](CC(C)(C)C)C(=O)N1Cc2ccccc2C[C@H]1C(=O)NCCCC[C@@H](NC(=O)[C@@H]1Cc2ccccc2CN1C(=O)[C@H](CC(C)(C)C)N(C)C)C(N)=O`, the fold change (FC) in the assay with K652 turned out to be 2.

Turning to `CN(C)[C@@H](CC(C)(C)C)C(=O)N1Cc2ccccc2C[C@H]1C(=O)NCCCC[C@H](NC(=O)[C@@H]1Cc2ccccc2CN1C(=O)[C@H](CC(C)(C)C)N(C)C)C(N)=O`, the inhibition result in assay [1] and in assay [2] was “Active” in each case. For the same compound, the fold change (FC) in the assay on K652 turned out to be 2.

The values above are taken from ChEMBL document CHEMBL2034976, “Relationship between structure and P-glycoprotein inhibitory activity of dimeric peptides related to the Dmt-Tic pharmacophore” (Bioorg Med Chem Lett, 2012).
